# Measured values published in patent publication US4704451A, “Mitogenic peptides” (Washington University, priority 1985, dated 1987).
# Columns and labels:
# macrophage-like cells = assay: Mitogenic activity for macrophage-like cells; format: cell-based
# Procedure: (§1) The growth stimulation of macrophage-like cells can be determined by measuring the thymidine uptake of the cells at varying concentrations of the mitogenic peptides of the present invention. This was determined for several macrophage-like cell lines including J774, P388Dl, RAW and PU5. These are well-known murine cell lines available, for example, from the American Type Culture Collection, Rockville, Md.
# [1] = test system: PU5 macrophage-like cell line; assay: 3[H]-TdR incorporation in growth-arrested PU5 cells; format: cell-based, murine; conditions: test (2), PU5, 10^-6 M (optimal concentration), mean ± s.e.m.
# Procedure: as §1
# (§2) ^3 [H]-TdR incorporation. Various cell lines were plated in Dulbeccos's Modified Eagle Medium (DMEM) containing 10% fetal calf serum (FCS) in […] humidified atmosphere at 37° C. at an initial density of 5×10^5 per well in 24 well disposable plastic plates (Falcon, Oxnard, Calif.). Arrest of DNA synthesis (i.e., G0 /G1) was achieved by incubating the cells for 48 hours in serum-free DMEM containing 0.1% bovine serum albumin (BSA). The cells were then exposed to the peptide or to various […], or to FCS for 48 hours. Enhanced thymidine incorporation was assessed following a 2 hour pulse of N-methyl^3 [H]-TdR (1 μCi/ml). […]
# (§3) The various cell lines employed in these tests were the murine macrophage-like cell lines J774, P388D1, RAW and PU5. […] The results are expressed as the mean of triplicate determinations.
# [2] = test system: J774 murine macrophage-like cells; assay: 3[H]-TdR incorporation in growth-arrested J774 cells; format: cell-based
# Procedure: as §1
# (§4) ^3 [H]-TdR incorporation. Various cell lines were plated in Dulbeccos's Modified Eagle Medium (DMEM) containing 10% fetal calf serum (FCS) in […] humidified atmosphere at 37° C. at an initial density of 5×10^5 per well in 24 well disposable plastic plates (Falcon, Oxnard, Calif.). Arrest of DNA synthesis (i.e., G0 /G1) was achieved by incubating the cells for 48 hours in serum-free DMEM containing 0.1% bovine serum albumin (BSA). The cells were then exposed to the peptide or to various […], or to FCS for 48 hours. Enhanced thymidine incorporation was assessed following a 2 hour pulse of N-methyl^3 [H]-TdR (1 μCi/ml). The cells were washed ×3 in PBS (phosphate buffered saline, pH 7.4) at 4, precipitated with 10% trichloroacetic acid (30 min at 4) and the insoluble material extracted ×2 with ETOH:ET2 O (3:1 v/v). The precipitate was solubilized in N NaOH and aliquots withdrawn for protein determinations using a dye-binding assay (Bio Rad Labs., Richmond, Calif.) and liquid scintillation spectrometry.
# The various cell lines employed in these tests were the murine macrophage-like cell lines J774, P388D1, RAW and PU5. The various […] used in these tests were platelet-derived growth factor (PDGF), epidermal growth factor (EGF), fibroblast growth factor (FGF), and nerve growth factor (NGF). For background information on these known polypeptide growth factors, see, for example, the recent review article by Kris is et al., Biotechnology, February 1985, pp. 135-140; and the comprehensive review in Hormonal Proteins and Peptides, Ed. by Choh Hao Li, Vol. 12, "Growth Factors," Academic Press, 1984. EGF, NGF and FGF are commercially available from Biomedical Technologies, Cambridge, Mass. In a representative test, 24 hours following exposure of the growth-arrested cells to optimal concentrations of the peptide (i.e., 10^-8 M), cell numbers increased approximately two-fold from a control value of […] cells/culture well. […] The results are set forth in FIG. 2 and in Table I, below. In FIG. 2, the baseline tritiated thymidine (^3 [H]-TdR) incorporation in quiescent J774 cells was 5000 cpm±420 s.e.m. (standard error of the mean) per well. The results are expressed as the mean of triplicate determinations.
# [3] = test system: RAW macrophage-like cell line; assay: 3[H]-TdR incorporation in growth-arrested RAW cells; format: cell-based, murine; conditions: test (2), 10^-8 M (optimal concentration), mean ± s.e.m.
# Procedure: as §1, §2, §3
# [4] = test system: P388D1 macrophage-like cell line; assay: 3[H]-TdR incorporation in growth-arrested P388D1 cells; format: cell-based, murine; conditions: test (2), P388D1, 10^-7 M (optimal concentration), mean ± s.e.m.
# Procedure: as §1, §2, §3
# [5] = test system: murine macrophage-like cell lines J774, P388D1, RAW and PU5; assay: Cell number (proliferation) of growth-arrested macrophage-like cells; format: cell-based; conditions: 24 hours after exposure of growth-arrested cells to 10^-8 M (optimal concentration)
# Procedure: as §4
# as §3, with “PU5. The various […] used in these tests were platelet-derived growth factor (PDGF), epidermal growth factor (EGF), fibroblast growth factor (FGF), and nerve growth factor (NGF).” for “PU5.”
# [6] = test (1), J774, >500 ng per well (highest concentration tested), mean ± s.e.m.
substance,measurement,setting,value
"H-NKNFTENDLL-OH [Peptide IV, H-Asn-Lys-Asn-Phe-Thr-Glu-Asn-Asp-Leu-Leu-OH]",mitogenic activity for macrophage-like cells,macrophage-like cells,inactive
"H-TENDLL-OH [Peptide III, H-Thr-Glu-Asn-Asp-Leu-Leu-OH]",mitogenic activity for macrophage-like cells,macrophage-like cells,inactive
"H-YPPWNKNFTENDLL-OH [Peptide I, H-Tyr-Pro-Pro-Trp-Asn-Lys-Asn-Phe-Thr-Glu-Asn-Asp-Leu-Leu-OH]",3[H]-TdR Incorporation/mg Protein (% Increase),[1],112± 4.4 % Increase
same,3[H]-TdR Incorporation/mg Protein (% Increase),"[2]; test (1), J774, 10^-8 M (optimal concentration), 48 h exposure, mean ± s.e.m. of triplicate cultures",140± 8.5 % Increase
same,3[H]-TdR Incorporation/mg Protein (% Increase),"[2]; test (2), J774, 10^-8 M (optimal concentration), mean ± s.e.m.",190± 12 % Increase
same,3[H]-TdR Incorporation/mg Protein (% Increase),[3],276± 18 % Increase
same,3[H]-TdR Incorporation/mg Protein (% Increase),[4],226± 22 % Increase
same,increase of cell numbers over control,[5],approximately two-fold
epidermal growth factor [EGF],3[H]-TdR Incorporation/mg Protein (% Increase),[2]; [6],5.2 ± 0.2 % Increase
fibroblast growth factor [FGF],3[H]-TdR Incorporation/mg Protein (% Increase),[2]; [6],0 ± 0.4 % Increase
nerve growth factor [NGF],3[H]-TdR Incorporation/mg Protein (% Increase),[2]; [6],0 ± 0.5 % Increase
platelet-derived growth factor [PDGF],3[H]-TdR Incorporation/mg Protein (% Increase),[2]; [6],9.4 ± 0.3 % Increase
